# Experimental data taken from PMC12006963, “Application of Deuterium in an M1 Positive Allosteric Modulator Back-Up Program: The Discovery of VU6045422” (ACS Chemical Neuroscience, 2025).
# Experiments:
# [1] = design: method as in PMID 39660766; conditions: rat hepatic microsomes; cited from earlier work
# CYP 3A4 = CYP 3A4 (Homo sapiens, UniProt P08684); design: method as in PMID 39660766; conditions: in words; cited from earlier work
# hERG = hERG (Homo sapiens, UniProt Q12809); assay: hERG manual patch clamp; assay type: cell-based
# [2] = test system: 68 GPCRs, ion channels, and transporters; assay: Eurofins lead profiling screen, whole panel; assay type: binding; conditions: 10 μM; significant means >50%
# [3] = molecular target: bile salt export pump (BSEP) (Homo sapiens, UniProt O95342); assay: Bile salt export pump inhibition; assay type: in vitro ADME
# Adenosine A1 = Adenosine A1 (Homo sapiens, UniProt P30542); assay: Eurofins radioligand binding
# Adenosine A2A = Adenosine A2A (Homo sapiens, UniProt P29274); assay: Eurofins radioligand binding
# Adrenergic α1A = Adrenergic α1A (Homo sapiens, UniProt P35348); assay: Eurofins radioligand binding
# Adrenergic α1B = Adrenergic α1B (Homo sapiens, UniProt P35368); assay: Eurofins radioligand binding
# Adrenergic α2A = Adrenergic α2A (Homo sapiens, UniProt P08913); assay: Eurofins radioligand binding
# [4] = test system: Calcium Channel L-Type, Dihydropyridine; assay: Eurofins radioligand binding; design: species or system Rat
# Dopamine D1 = Dopamine D1 (Homo sapiens, UniProt P21728); assay: Eurofins radioligand binding
# Endothelin ETA = Endothelin ETA (Homo sapiens, UniProt P25101); assay: Eurofins radioligand binding
# [5] = molecular target: Epidermal Growth Factor (EGF) (Homo sapiens, UniProt P00533); assay: Eurofins radioligand binding
# Estrogen ERα = Estrogen ERα (Homo sapiens, UniProt P03372); assay: Eurofins radioligand binding
# GABAA, Muscimol, Central = assay: Eurofins radioligand binding; design: species or system Rat
# Glucocorticoid = Glucocorticoid (Homo sapiens, UniProt P04150); assay: Eurofins radioligand binding
# Glutamate, NMDA, Agonism = assay: Eurofins radioligand binding; design: species or system Rat
# Histamine H2 = Histamine H2 (Homo sapiens, UniProt P25021); assay: Eurofins radioligand binding
# [6] = molecular target: Nicotinic Acetylcholine α1, Bungarotoxin (Homo sapiens, UniProt P02708+P07510+Q07001); assay: Eurofins radioligand binding; conditions: read-out: % Inhibition at 10 µM
# Opiate δ1 (OP1, DOP) = Opiate δ1 (OP1, DOP) (Homo sapiens, UniProt P41143); assay: Eurofins radioligand binding
# hERG potassium channel = hERG potassium channel (Homo sapiens, UniProt Q12809); assay: Eurofins radioligand binding
# Prostanoid EP4 = Prostanoid EP4 (Homo sapiens, UniProt P35408); assay: Eurofins radioligand binding
# Purinergic P2X = assay: Eurofins radioligand binding; design: species or system Rat
# Rolipram = assay: Eurofins radioligand binding; design: species or system Rat
# Thyroid Hormone = assay: Eurofins radioligand binding; design: species or system Rat
# Estrogen ERα, sequence (P03372 whole entry): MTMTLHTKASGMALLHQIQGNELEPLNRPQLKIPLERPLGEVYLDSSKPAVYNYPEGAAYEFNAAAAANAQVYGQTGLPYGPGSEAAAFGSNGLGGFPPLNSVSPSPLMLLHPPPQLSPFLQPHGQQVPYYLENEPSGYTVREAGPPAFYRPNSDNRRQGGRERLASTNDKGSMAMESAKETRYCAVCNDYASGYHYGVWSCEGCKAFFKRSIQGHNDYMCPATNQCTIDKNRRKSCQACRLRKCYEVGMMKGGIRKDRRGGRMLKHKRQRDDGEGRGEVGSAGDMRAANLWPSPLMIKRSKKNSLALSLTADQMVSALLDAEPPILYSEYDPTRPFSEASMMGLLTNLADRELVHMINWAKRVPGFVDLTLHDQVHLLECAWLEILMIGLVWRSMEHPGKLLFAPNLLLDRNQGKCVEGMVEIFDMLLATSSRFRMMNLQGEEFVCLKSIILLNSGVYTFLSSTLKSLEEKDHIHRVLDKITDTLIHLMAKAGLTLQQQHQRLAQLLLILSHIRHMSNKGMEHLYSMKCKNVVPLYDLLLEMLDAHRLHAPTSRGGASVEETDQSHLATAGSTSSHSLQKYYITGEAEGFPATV
# Adrenergic α2A, sequence (P08913 whole entry): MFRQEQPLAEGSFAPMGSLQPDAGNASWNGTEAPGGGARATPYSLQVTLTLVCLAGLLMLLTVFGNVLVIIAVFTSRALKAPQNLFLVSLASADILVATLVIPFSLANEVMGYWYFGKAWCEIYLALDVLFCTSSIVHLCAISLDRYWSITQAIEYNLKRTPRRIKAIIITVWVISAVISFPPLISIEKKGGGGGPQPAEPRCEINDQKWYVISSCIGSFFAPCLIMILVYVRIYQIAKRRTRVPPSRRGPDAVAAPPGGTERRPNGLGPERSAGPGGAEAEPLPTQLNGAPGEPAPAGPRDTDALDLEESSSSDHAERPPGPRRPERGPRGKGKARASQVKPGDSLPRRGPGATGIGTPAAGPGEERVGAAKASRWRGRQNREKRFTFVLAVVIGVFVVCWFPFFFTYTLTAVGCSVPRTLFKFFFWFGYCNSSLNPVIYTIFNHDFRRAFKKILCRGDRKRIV
# CYP 3A4, sequence (P08684 whole entry): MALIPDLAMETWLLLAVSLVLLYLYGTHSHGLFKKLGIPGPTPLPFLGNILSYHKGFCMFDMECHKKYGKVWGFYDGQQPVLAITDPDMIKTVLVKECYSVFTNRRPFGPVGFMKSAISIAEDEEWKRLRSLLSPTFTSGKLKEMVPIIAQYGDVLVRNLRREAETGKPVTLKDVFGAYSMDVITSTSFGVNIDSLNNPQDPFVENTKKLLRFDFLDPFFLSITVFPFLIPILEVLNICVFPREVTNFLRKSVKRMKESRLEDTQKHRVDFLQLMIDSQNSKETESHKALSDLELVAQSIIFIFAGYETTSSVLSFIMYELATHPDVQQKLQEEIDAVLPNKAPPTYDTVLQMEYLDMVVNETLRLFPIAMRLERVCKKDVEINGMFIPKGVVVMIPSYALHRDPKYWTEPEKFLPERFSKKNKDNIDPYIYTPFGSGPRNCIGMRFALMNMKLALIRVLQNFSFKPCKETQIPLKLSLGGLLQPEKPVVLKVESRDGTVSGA
# Histamine H2, sequence (P25021 whole entry): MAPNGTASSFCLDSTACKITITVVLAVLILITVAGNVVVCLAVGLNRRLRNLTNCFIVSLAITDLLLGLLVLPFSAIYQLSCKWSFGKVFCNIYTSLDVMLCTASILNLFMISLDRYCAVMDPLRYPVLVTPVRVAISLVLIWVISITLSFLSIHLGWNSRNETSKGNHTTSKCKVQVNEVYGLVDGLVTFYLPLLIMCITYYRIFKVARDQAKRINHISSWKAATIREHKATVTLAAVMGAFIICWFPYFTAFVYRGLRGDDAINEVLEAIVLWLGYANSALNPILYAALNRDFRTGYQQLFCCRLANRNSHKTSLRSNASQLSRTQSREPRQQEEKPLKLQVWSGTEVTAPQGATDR
# Epidermal Growth Factor (EGF), sequence (P00533 25-1210): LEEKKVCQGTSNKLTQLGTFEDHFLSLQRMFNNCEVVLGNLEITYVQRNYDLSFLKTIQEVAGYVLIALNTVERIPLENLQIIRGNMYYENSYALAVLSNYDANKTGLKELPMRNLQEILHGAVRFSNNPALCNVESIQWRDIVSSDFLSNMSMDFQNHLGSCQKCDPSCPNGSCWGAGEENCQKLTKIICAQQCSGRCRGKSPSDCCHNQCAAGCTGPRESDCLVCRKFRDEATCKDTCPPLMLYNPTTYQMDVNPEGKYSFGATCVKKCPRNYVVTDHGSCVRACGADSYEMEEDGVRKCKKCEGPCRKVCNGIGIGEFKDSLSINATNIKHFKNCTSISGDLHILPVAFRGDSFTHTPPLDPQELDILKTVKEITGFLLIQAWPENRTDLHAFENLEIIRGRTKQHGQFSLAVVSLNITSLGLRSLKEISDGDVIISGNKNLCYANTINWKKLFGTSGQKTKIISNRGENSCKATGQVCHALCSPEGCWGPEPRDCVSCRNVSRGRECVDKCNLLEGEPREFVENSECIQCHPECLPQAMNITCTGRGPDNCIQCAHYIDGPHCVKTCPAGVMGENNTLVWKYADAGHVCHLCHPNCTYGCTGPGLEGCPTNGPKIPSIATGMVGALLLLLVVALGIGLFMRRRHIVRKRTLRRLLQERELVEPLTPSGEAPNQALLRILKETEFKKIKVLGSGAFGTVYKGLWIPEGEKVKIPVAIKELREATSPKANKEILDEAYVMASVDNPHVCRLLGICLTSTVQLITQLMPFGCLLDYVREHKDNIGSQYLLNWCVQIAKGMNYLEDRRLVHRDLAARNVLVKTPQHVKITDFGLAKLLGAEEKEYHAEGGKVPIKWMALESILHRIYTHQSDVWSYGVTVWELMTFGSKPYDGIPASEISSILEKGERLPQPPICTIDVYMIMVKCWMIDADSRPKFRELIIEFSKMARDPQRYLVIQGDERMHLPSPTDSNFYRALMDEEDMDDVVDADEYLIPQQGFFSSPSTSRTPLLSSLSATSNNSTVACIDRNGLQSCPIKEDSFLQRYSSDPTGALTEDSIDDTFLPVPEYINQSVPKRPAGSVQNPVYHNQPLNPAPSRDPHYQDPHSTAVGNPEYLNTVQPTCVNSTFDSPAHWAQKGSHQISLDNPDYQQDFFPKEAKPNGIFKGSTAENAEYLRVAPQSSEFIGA
# Adrenergic α1A, sequence (P35348 whole entry): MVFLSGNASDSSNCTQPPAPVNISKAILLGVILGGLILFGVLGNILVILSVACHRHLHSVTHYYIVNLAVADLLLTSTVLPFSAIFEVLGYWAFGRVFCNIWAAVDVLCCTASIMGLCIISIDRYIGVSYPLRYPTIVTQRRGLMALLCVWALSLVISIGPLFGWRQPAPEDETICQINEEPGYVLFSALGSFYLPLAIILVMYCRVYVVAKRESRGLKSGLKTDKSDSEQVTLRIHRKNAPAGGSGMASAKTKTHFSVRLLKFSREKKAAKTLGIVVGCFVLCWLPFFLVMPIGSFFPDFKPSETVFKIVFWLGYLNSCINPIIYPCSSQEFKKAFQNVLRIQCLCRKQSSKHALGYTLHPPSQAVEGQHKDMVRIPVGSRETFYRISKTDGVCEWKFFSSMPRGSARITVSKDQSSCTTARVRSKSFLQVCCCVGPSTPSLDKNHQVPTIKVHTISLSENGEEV
# Opiate δ1 (OP1, DOP), sequence (P41143 whole entry): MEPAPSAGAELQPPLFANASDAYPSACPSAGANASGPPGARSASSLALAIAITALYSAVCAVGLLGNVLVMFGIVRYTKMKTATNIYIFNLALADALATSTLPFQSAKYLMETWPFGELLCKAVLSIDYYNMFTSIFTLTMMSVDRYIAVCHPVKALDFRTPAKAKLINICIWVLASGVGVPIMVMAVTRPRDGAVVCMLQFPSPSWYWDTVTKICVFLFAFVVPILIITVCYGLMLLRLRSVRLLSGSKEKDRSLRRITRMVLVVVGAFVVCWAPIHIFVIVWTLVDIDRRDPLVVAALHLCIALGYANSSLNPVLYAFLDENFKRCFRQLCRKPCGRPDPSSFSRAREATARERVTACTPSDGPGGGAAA
# Adenosine A2A, sequence (P29274 whole entry): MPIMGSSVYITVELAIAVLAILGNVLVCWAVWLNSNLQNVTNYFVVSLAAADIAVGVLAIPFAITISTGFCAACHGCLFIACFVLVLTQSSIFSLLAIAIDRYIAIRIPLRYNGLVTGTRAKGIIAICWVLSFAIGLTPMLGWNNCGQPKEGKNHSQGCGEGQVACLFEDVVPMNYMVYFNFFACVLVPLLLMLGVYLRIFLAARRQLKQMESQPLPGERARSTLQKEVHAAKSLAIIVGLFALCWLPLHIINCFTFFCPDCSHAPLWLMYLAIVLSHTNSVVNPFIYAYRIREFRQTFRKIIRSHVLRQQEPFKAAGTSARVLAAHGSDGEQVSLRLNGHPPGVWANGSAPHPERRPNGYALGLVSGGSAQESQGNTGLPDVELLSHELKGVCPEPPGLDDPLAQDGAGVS
# Endothelin ETA, sequence (P25101 21-427): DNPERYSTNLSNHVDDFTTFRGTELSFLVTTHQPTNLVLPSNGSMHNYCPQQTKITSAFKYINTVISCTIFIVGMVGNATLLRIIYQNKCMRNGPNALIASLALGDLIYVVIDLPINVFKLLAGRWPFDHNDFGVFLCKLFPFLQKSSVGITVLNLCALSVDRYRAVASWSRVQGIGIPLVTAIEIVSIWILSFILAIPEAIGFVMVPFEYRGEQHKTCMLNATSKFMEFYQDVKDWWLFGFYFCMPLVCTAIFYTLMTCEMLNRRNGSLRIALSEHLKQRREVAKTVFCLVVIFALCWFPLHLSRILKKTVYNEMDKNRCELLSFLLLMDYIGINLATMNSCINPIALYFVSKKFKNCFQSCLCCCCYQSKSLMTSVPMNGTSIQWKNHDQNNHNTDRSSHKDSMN
structure (smiles),measurement,setting,value
Cn1cc2c(-c3cc(F)c(CN4Cc5ncccc5C4=O)c(F)c3)cccc2n1 [compound 1],rat CLhep,[1],5.7 mL/min/kg
same,CYP isoform responsible for metabolism,CYP 3A4,solely metabolized by CYP 3A4
[2H]C1([2H])c2ncccc2C(=O)N1Cc1c(F)cc(-c2cccc3nn(C([2H])([2H])[2H])cc23)cc1F [compound 5],IC50,hERG,21 µM
same,"activity in Eurofins lead profiling screen, whole panel",[2],no significant activity
same,IC50,[3],42.3 µM
same,inhibition at 10 µM,Adenosine A1,30%
same,inhibition at 10 µM,Adenosine A2A,7%
same,inhibition at 10 µM,Adrenergic α1A,8%
same,inhibition at 10 µM,Adrenergic α1B,10%
same,inhibition at 10 µM,Adrenergic α2A,58%
same,% Inhibition at 10 µM,[4],6%
same,inhibition at 10 µM,Dopamine D1,-3%
same,inhibition at 10 µM,Endothelin ETA,-4%
same,inhibition at 10 µM,[5],3%
same,inhibition at 10 µM,Estrogen ERα,10%
same,% Inhibition at 10 µM,"GABAA, Muscimol, Central",0%
same,inhibition at 10 µM,Glucocorticoid,13%
same,% Inhibition at 10 µM,"Glutamate, NMDA, Agonism",3%
same,inhibition at 10 µM,Histamine H2,2%
same,inhibition at 10 µM,[6],8%
same,inhibition at 10 µM,"Opiate δ1 (OP1, DOP)",1%
same,inhibition at 10 µM,hERG potassium channel,9%
same,inhibition at 10 µM,Prostanoid EP4,-3%
same,% Inhibition at 10 µM,Purinergic P2X,4%
same,% Inhibition at 10 µM,Rolipram,10%
same,% Inhibition at 10 µM,Thyroid Hormone,0%
